Consider ten compounds from ChEMBL document CHEMBL1201862, “PubChem BioAssay data set” (2004).

Some test systems named below: KM12; A498; SN12C; HCT-116; HOP-92; HT-29; SK-MEL-2; K562; SF-268; SNB-75; MCF7; NCI-H460; SK-MEL-28; HCT-15; SK-MEL-5; A549; SW-620; SNB-19; HL-60; ACHN.
Holding throughout (test): growth of human tumour cells (NCI), 48 h

Each structure is given as a SMILES string.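 Cultured in 96-well plates, cells were exposed to test compound for 48 hours across five concentrations. GI50 marks 50% less growth.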 Calls of active or inactive are those of the source. Cut-off read from the data, not from the text of the source: active = GI50 up to about 1.1 µM and inactive = higher. A value given as a limit tells only on which side of the number the result lay.

Turning to `CCCNC(=O)C(C)C1CCC2(C)C=CC(=O)C(C)=C2C1O` (centres undefined), the GI50 in the assay on KM12, in the assay on A498, in the assay with SN12C, in the assay on HCT-116, in the assay with HOP-92 and in the assay with HT-29 was > 100 µM (inactive) each time. For the same compound, the GI50 in the assay on SK-MEL-2, in the assay on K562, in the assay with SF-268, with SNB-75, with MCF7 and in the assay on NCI-H460 was > 100 µM (inactive) throughout. The GI50 in the assay on SK-MEL-28 is > 100 µM (inactive); in the assay on HCT-15, greater than 100 µM; in the assay on SK-MEL-5, > 100 µM (inactive); with A549, > 100 µM (inactive); in the assay with SW-620 it was > 100 µM (inactive); in the assay with SNB-19 it was > 100 µM (inactive). In addition, the GI50 with HL-60 is > 100 µM (inactive).

For the compound `COc1ccc(C2c3cc4c(cc3OC(N3CCOCC3)C2C)OCO4)cc1OC` (centres undefined), the GI50 in the assay on KM12 is 4.46 µM (inactive); in the assay on A498, 6.46 µM (inactive); in the assay on SN12C it was 22.6 µM (inactive); in the assay on HCT-116, 4.75 µM (inactive); in the assay on HOP-92, 8.95 µM (inactive); with HT-29, 4.69 µM (inactive). The GI50 was 5.77 µM (inactive) in the assay with SK-MEL-2; 4.31 µM (inactive) with K562; 13.9 µM (inactive) in the assay on SF-268; 2.99 µM (inactive) in the assay with SNB-75; 4.97 µM (inactive) in the assay on MCF7; 6.3 µM (inactive) in the assay on NCI-H460. The GI50 is > 50.5 µM (inactive) in the assay on SK-MEL-28; 4.76 µM in the assay with HCT-15; 4.06 µM (inactive) in the assay with SK-MEL-5; 7.82 µM (inactive) in the assay with A549; 4.74 µM (inactive) in the assay with SW-620; 10.3 µM (inactive) in the assay with ACHN. The GI50 with SNB-19 is 7.18 µM (inactive); in the assay with HL-60 it was 3.06 µM (inactive).

Take `CC/C=C/C[C@H](O[Si](C)(C)C(C)(C)C)[C@H]1C[C@H]2O[C@H]([C@@H](O)C#C[Si](C)(C)C)C[C@H]2O1`: the GI50 is 17.9 µM (inactive) in the assay on KM12; 17.9 µM (inactive) in the assay with A498; 5.36 µM (inactive) in the assay with SN12C; 12.1 µM (inactive) in the assay on HCT-116; 10.4 µM (inactive) with HOP-92; 11.9 µM (inactive) in the assay on HT-29. The GI50 with SK-MEL-2 was 15.5 µM (inactive); in the assay with K562, 13.9 µM (inactive); in the assay with SF-268 it was 13.8 µM (inactive); in the assay with SNB-75, 16.3 µM (inactive); with MCF7 it was 6.92 µM (inactive); with NCI-H460, 15.8 µM (inactive). In addition, the GI50 is 14.2 µM (inactive) with SK-MEL-28; 13.7 µM with HCT-15; 6.78 µM (inactive) with SK-MEL-5; 10.1 µM (inactive) in the assay on A549; 16.6 µM (inactive) in the assay on SW-620; 15.2 µM (inactive) with ACHN. In addition, the GI50 with SNB-19 is 13.8 µM (inactive); in the assay with HL-60, 3.84 µM (inactive).

For the compound `C[C@H]1COC(c2ccccn2)=N1`, the GI50 in the assay with KM12, in the assay with A498, in the assay with SN12C, in the assay with HCT-116, in the assay on HOP-92 and in the assay with HT-29 was > 100 µM (inactive) each time. Besides, the GI50 in the assay on SK-MEL-2, with K562, with SF-268, in the assay with SNB-75, with MCF7 and with NCI-H460 was > 100 µM (inactive) each time. In addition, the GI50 is > 100 µM (inactive) in the assay on SK-MEL-28; greater than 100 µM with HCT-15; > 100 µM (inactive) in the assay on SK-MEL-5; > 100 µM (inactive) with A549; > 100 µM (inactive) in the assay with SW-620; > 100 µM (inactive) in the assay on SNB-19. Further, in the assay on HL-60, the GI50 was > 100 µM (inactive).

Consider `CC1(C)N=C(N)N=C(N)N1c1ccc(CCCCc2ccc(S(=O)(=O)F)cc2Cl)c(Cl)c1`, for which the GI50 is 2.52 µM (inactive) in the assay on KM12; 37.2 µM (inactive) with A498; 1.16 µM (inactive) with SN12C; 1.03 µM (active) in the assay with HCT-116; 4.18 µM (inactive) in the assay on HOP-92; 1.53 µM (inactive) in the assay on HT-29. The GI50 was 8.34 µM (inactive) with SK-MEL-2; 0.425 µM (active) in the assay on K562; 0.984 µM (active) in the assay on SF-268; 9.23 µM (inactive) with SNB-75; 2.39 µM (inactive) in the assay with MCF7; 0.266 µM (active) with NCI-H460. Also, the GI50 in the assay with SK-MEL-28 was 4.93 µM (inactive); in the assay on HCT-15 it was 2.72 µM; in the assay with SK-MEL-5, 1.05 µM (active); with A549, 0.706 µM (active); in the assay on SW-620, 2.7 µM (inactive); with ACHN, 2.22 µM (inactive). Moreover, the GI50 was 3.64 µM (inactive) in the assay on SNB-19 and 0.366 µM (active) in the assay on HL-60.

As for `CN(C)c1ccc(C2SCC(=O)N2c2nc3cc4sc(N5C(=O)CSC5c5ccc(N(C)C)cc5)nc4cc3s2)cc1` (centres undefined), the GI50 with KM12 was 39.5 µM (inactive); in the assay with A498 it was 27.9 µM (inactive); in the assay on SN12C it was > 20.5 µM (inactive); with HCT-116, 16 µM (inactive); in the assay with HOP-92, > 60.5 µM (inactive); in the assay on HT-29, 17 µM (inactive). Further, the GI50 in the assay on SK-MEL-2 was > 100 µM (inactive); in the assay on K562 it was 40.9 µM (inactive); in the assay on SF-268, 75.7 µM (inactive); in the assay on SNB-75, > 90.6 µM (inactive); in the assay on MCF7 it was 12 µM (inactive); with NCI-H460 it was 1.53 µM (inactive). Further, the GI50 was > 72.8 µM (inactive) with SK-MEL-28; 8.87 µM with HCT-15; 32 µM (inactive) with SK-MEL-5; 7.71 µM (inactive) with A549; 8.02 µM (inactive) with SW-620; 28.1 µM (inactive) with ACHN. The figures for the GI50 in the assay with SNB-19 and in the assay on HL-60 were 41.4 µM (inactive) and 29 µM (inactive), respectively.

Consider `O=C(/C=C/c1ccccc1)Oc1cccc(O)c1`, for which the GI50 in the assay on KM12 is 19.1 µM (inactive); in the assay with A498 it was > 100 µM (inactive); in the assay on SN12C, 44.1 µM (inactive); with HCT-116 it was 16.4 µM (inactive); in the assay with HOP-92 it was > 100 µM (inactive); in the assay on HT-29 it was 37.2 µM (inactive). In addition, the GI50 was > 100 µM (inactive) in the assay with SK-MEL-2; 15.5 µM (inactive) with SF-268; 65 µM (inactive) with SNB-75; 38.7 µM (inactive) with MCF7; > 100 µM (inactive) in the assay with NCI-H460; 23.6 µM (inactive) in the assay on SK-MEL-28. Moreover, the GI50 in the assay with HCT-15 is 16.6 µM; in the assay on SK-MEL-5 it was 37.5 µM (inactive); in the assay with A549 it was 46 µM (inactive); in the assay with SW-620, 18.3 µM (inactive); in the assay with ACHN, > 100 µM (inactive); with SNB-19 it was 20.2 µM (inactive). In addition, the GI50 with HL-60 is 16.9 µM (inactive).

With `C=C1N(C)c2ccc(S(=O)(=O)c3ccc4c(c3)C(C)(C)C(=C)N4C)cc2C1(C)C`, the GI50 in the assay with KM12 is 45.5 µM (inactive); in the assay on A498, 37.2 µM (inactive); with SN12C, 42.2 µM (inactive); in the assay on HCT-116 it was 34.5 µM (inactive); in the assay on HOP-92, 3.85 µM (inactive); with HT-29 it was 47 µM (inactive). Moreover, the GI50 was 41.3 µM (inactive) in the assay on SK-MEL-2; 36.6 µM (inactive) in the assay with SF-268; 16.3 µM (inactive) with SNB-75; 29 µM (inactive) in the assay on MCF7; 49.8 µM (inactive) in the assay with NCI-H460; > 100 µM (inactive) in the assay with SK-MEL-28. Further, the GI50 in the assay with HCT-15 is 59.7 µM; with SK-MEL-5 it was 17.5 µM (inactive); with A549 it was 28.6 µM (inactive); in the assay with SW-620 it was 45 µM (inactive); in the assay on ACHN it was 77.8 µM (inactive); with SNB-19, 39.2 µM (inactive). For the same compound, in the assay on HL-60, the GI50 is 27.3 µM (inactive).

In the case of `COc1ccc2nc3c(C(=O)NCCN(C)C)cccc3cc2c1`, the GI50 in the assay on KM12 was 2.96 µM (inactive); in the assay with A498, 1.36 µM (inactive); in the assay with SN12C it was 1.75 µM (inactive); in the assay with HCT-116 it was 0.908 µM (active); in the assay with HOP-92, 2.28 µM (inactive); with HT-29, 1.29 µM (inactive). Also, the GI50 in the assay with SK-MEL-2 was 2.49 µM (inactive); in the assay with K562, 3.07 µM (inactive); in the assay with SF-268, 2.82 µM (inactive); with SNB-75 it was 2.17 µM (inactive); with MCF7, 1.35 µM (inactive); with NCI-H460 it was 0.724 µM (active). Moreover, the GI50 with SK-MEL-28 was 2.98 µM (inactive); with HCT-15, 2.25 µM; in the assay with SK-MEL-5 it was 1.64 µM (inactive); in the assay with A549 it was 1.49 µM (inactive); in the assay with SW-620, 1.42 µM (inactive); in the assay with SNB-19, 2.23 µM (inactive). The GI50 with HL-60 is 1.4 µM (inactive).

As for `[N-]=[N+]=CC(=O)CCC(NC(=O)C(CCC(=O)C=[N+]=[N-])NC(=O)CCC(N)C(=O)O)C(=O)O` (centres undefined), the GI50 is 31.6 µM (inactive) in the assay on KM12; > 100 µM (inactive) with A498; > 100 µM (inactive) in the assay with SN12C; > 100 µM (inactive) in the assay on HCT-116; > 100 µM (inactive) in the assay with HOP-92; > 100 µM (inactive) in the assay on HT-29. Besides, the GI50 in the assay with SK-MEL-2, in the assay on K562, in the assay on SF-268, in the assay on SNB-75, in the assay on MCF7 and in the assay with NCI-H460 was > 100 µM (inactive) in each case. In addition, the GI50 with SK-MEL-28 was > 100 µM (inactive); with HCT-15, greater than 100 µM; in the assay on SK-MEL-5, > 100 µM (inactive); with A549 it was > 100 µM (inactive); with SW-620, > 100 µM (inactive); in the assay with SNB-19, > 100 µM (inactive). Besides, the GI50 with HL-60 was > 100 µM (inactive).
